In PubChem BioAssay AID1963837 (Molecular Pharmacology Branch, DTP, NCI, 2024):

The compounds below were run on 843126-344-R-J1-PDC complex spheroid viability (assay: Anticancer human tumor 843126-344-R-J1-PDC patient-derived melanoma cell line growth inhibition [POLQ]). Settings: second compound 10 µM; first compound 0.01 µM; hits give low values.
Method in brief: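 Three-cell-type spheroids modelling solid tumor plus stroma served as the readout system; POL inhibitors were tested individually and in combination, concentration ranges set by clinical Cmax where known.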
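Note: spheroids exposed to drugs for seven days before readout.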

Structure (SMILES) | viability, T/C
CCc1c2c(nc3ccc(O)cc13)-c1cc3c(c(=O)n1C2)COC(=O)[C@]3(O)CC + Nc1ccc(C#CCN(C(=O)Cc2ncc(C(F)(F)F)cc2C(F)(F)F)c2ccc(F)cc2)nn1 | 55.2%
COc1cccc(OCCCN)c1-c1cc(Nc2cnc(C#N)cn2)n[nH]1 + Nc1ccc(C#CCN(C(=O)Cc2ncc(C(F)(F)F)cc2C(F)(F)F)c2ccc(F)cc2)nn1 | 66.8%

Same assay, conditions: second compound 10 µM; first compound 0.0316 µM; hits give low values

Structure (SMILES) | viability, T/C
C=CCn1c(=O)c2cnc(Nc3ccc(N4CCN(C)CC4)cc3)nc2n1-c1cccc(C(C)(C)O)n1 + Nc1ccc(C#CCN(C(=O)Cc2ncc(C(F)(F)F)cc2C(F)(F)F)c2ccc(F)cc2)nn1 | 84.5%
CCc1c2c(nc3ccc(O)cc13)-c1cc3c(c(=O)n1C2)COC(=O)[C@]3(O)CC + Nc1ccc(C#CCN(C(=O)Cc2ncc(C(F)(F)F)cc2C(F)(F)F)c2ccc(F)cc2)nn1 | 54.6%
COc1cccc(OCCCN)c1-c1cc(Nc2cnc(C#N)cn2)n[nH]1 + Nc1ccc(C#CCN(C(=O)Cc2ncc(C(F)(F)F)cc2C(F)(F)F)c2ccc(F)cc2)nn1 | 51.9%
Nc1ccn(C2OC(CO)C(O)C2(F)F)c(=O)n1 (configuration not stated) + Nc1ccc(C#CCN(C(=O)Cc2ncc(C(F)(F)F)cc2C(F)(F)F)c2ccc(F)cc2)nn1 | 39.5%
O=C(c1cc(Cc2n[nH]c(=O)c3ccccc23)ccc1F)N1CCN(C(=O)C2CC2)CC1 + Nc1ccc(C#CCN(C(=O)Cc2ncc(C(F)(F)F)cc2C(F)(F)F)c2ccc(F)cc2)nn1 | 80.7%
O=c1[nH]cc(F)c(=O)[nH]1 + Nc1ccc(C#CCN(C(=O)Cc2ncc(C(F)(F)F)cc2C(F)(F)F)c2ccc(F)cc2)nn1 | 81.9%

Same assay, conditions: second compound 10 µM; first compound 0.1 µM; hits give low values

Structure (SMILES) | viability, T/C
C=CCn1c(=O)c2cnc(Nc3ccc(N4CCN(C)CC4)cc3)nc2n1-c1cccc(C(C)(C)O)n1 + Nc1ccc(C#CCN(C(=O)Cc2ncc(C(F)(F)F)cc2C(F)(F)F)c2ccc(F)cc2)nn1 | 91.9%
CCc1c2c(nc3ccc(O)cc13)-c1cc3c(c(=O)n1C2)COC(=O)[C@]3(O)CC + Nc1ccc(C#CCN(C(=O)Cc2ncc(C(F)(F)F)cc2C(F)(F)F)c2ccc(F)cc2)nn1 | 69.8%
COc1cccc(OCCCN)c1-c1cc(Nc2cnc(C#N)cn2)n[nH]1 + Nc1ccc(C#CCN(C(=O)Cc2ncc(C(F)(F)F)cc2C(F)(F)F)c2ccc(F)cc2)nn1 | 45.8%
Nc1ccn(C2OC(CO)C(O)C2(F)F)c(=O)n1 (configuration not stated) + Nc1ccc(C#CCN(C(=O)Cc2ncc(C(F)(F)F)cc2C(F)(F)F)c2ccc(F)cc2)nn1 | 38.1%
O=C(c1cc(Cc2n[nH]c(=O)c3ccccc23)ccc1F)N1CCN(C(=O)C2CC2)CC1 + Nc1ccc(C#CCN(C(=O)Cc2ncc(C(F)(F)F)cc2C(F)(F)F)c2ccc(F)cc2)nn1 | 85.5%
O=c1[nH]cc(F)c(=O)[nH]1 + Nc1ccc(C#CCN(C(=O)Cc2ncc(C(F)(F)F)cc2C(F)(F)F)c2ccc(F)cc2)nn1 | 86.2%

Same assay, conditions: second compound 10 µM; first compound 0.316 µM; hits give low values

Structure (SMILES) | viability, T/C
C=CCn1c(=O)c2cnc(Nc3ccc(N4CCN(C)CC4)cc3)nc2n1-c1cccc(C(C)(C)O)n1 + Nc1ccc(C#CCN(C(=O)Cc2ncc(C(F)(F)F)cc2C(F)(F)F)c2ccc(F)cc2)nn1 | 79.1%
CCc1c2c(nc3ccc(O)cc13)-c1cc3c(c(=O)n1C2)COC(=O)[C@]3(O)CC + Nc1ccc(C#CCN(C(=O)Cc2ncc(C(F)(F)F)cc2C(F)(F)F)c2ccc(F)cc2)nn1 | 65.4%
COc1cccc(OCCCN)c1-c1cc(Nc2cnc(C#N)cn2)n[nH]1 + Nc1ccc(C#CCN(C(=O)Cc2ncc(C(F)(F)F)cc2C(F)(F)F)c2ccc(F)cc2)nn1 | 42.8%
Nc1ccn(C2OC(CO)C(O)C2(F)F)c(=O)n1 (configuration not stated) + Nc1ccc(C#CCN(C(=O)Cc2ncc(C(F)(F)F)cc2C(F)(F)F)c2ccc(F)cc2)nn1 | 32.8%
O=C(c1cc(Cc2n[nH]c(=O)c3ccccc23)ccc1F)N1CCN(C(=O)C2CC2)CC1 + Nc1ccc(C#CCN(C(=O)Cc2ncc(C(F)(F)F)cc2C(F)(F)F)c2ccc(F)cc2)nn1 | 88%
O=c1[nH]cc(F)c(=O)[nH]1 + Nc1ccc(C#CCN(C(=O)Cc2ncc(C(F)(F)F)cc2C(F)(F)F)c2ccc(F)cc2)nn1 | 84.6%

Same assay, conditions: second compound 10 µM; first compound 1 µM; hits give low values

Structure (SMILES) | viability, T/C
C=CCn1c(=O)c2cnc(Nc3ccc(N4CCN(C)CC4)cc3)nc2n1-c1cccc(C(C)(C)O)n1 + Nc1ccc(C#CCN(C(=O)Cc2ncc(C(F)(F)F)cc2C(F)(F)F)c2ccc(F)cc2)nn1 | 74.5%
CCc1c2c(nc3ccc(O)cc13)-c1cc3c(c(=O)n1C2)COC(=O)[C@]3(O)CC + Nc1ccc(C#CCN(C(=O)Cc2ncc(C(F)(F)F)cc2C(F)(F)F)c2ccc(F)cc2)nn1 | 41%
COc1cccc(OCCCN)c1-c1cc(Nc2cnc(C#N)cn2)n[nH]1 + Nc1ccc(C#CCN(C(=O)Cc2ncc(C(F)(F)F)cc2C(F)(F)F)c2ccc(F)cc2)nn1 | 30.4%
Nc1ccn(C2OC(CO)C(O)C2(F)F)c(=O)n1 (configuration not stated) + Nc1ccc(C#CCN(C(=O)Cc2ncc(C(F)(F)F)cc2C(F)(F)F)c2ccc(F)cc2)nn1 | 39.9%
O=C(c1cc(Cc2n[nH]c(=O)c3ccccc23)ccc1F)N1CCN(C(=O)C2CC2)CC1 + Nc1ccc(C#CCN(C(=O)Cc2ncc(C(F)(F)F)cc2C(F)(F)F)c2ccc(F)cc2)nn1 | 92.7%
O=c1[nH]cc(F)c(=O)[nH]1 + Nc1ccc(C#CCN(C(=O)Cc2ncc(C(F)(F)F)cc2C(F)(F)F)c2ccc(F)cc2)nn1 | 81.9%

Same assay, conditions: second compound 10 µM; first compound 3.16 µM; hits give low values

Structure (SMILES) | viability, T/C
Nc1ccn(C2OC(CO)C(O)C2(F)F)c(=O)n1 (configuration not stated) + Nc1ccc(C#CCN(C(=O)Cc2ncc(C(F)(F)F)cc2C(F)(F)F)c2ccc(F)cc2)nn1 | 31.2%
O=C(c1cc(Cc2n[nH]c(=O)c3ccccc23)ccc1F)N1CCN(C(=O)C2CC2)CC1 + Nc1ccc(C#CCN(C(=O)Cc2ncc(C(F)(F)F)cc2C(F)(F)F)c2ccc(F)cc2)nn1 | 81.3%
O=c1[nH]cc(F)c(=O)[nH]1 + Nc1ccc(C#CCN(C(=O)Cc2ncc(C(F)(F)F)cc2C(F)(F)F)c2ccc(F)cc2)nn1 | 88%

Same assay, conditions: second compound 10 µM; first compound 10 µM; hits give low values

Structure (SMILES) | viability, T/C
Nc1ccn(C2OC(CO)C(O)C2(F)F)c(=O)n1 (configuration not stated) + Nc1ccc(C#CCN(C(=O)Cc2ncc(C(F)(F)F)cc2C(F)(F)F)c2ccc(F)cc2)nn1 | 42.6%
O=C(c1cc(Cc2n[nH]c(=O)c3ccccc23)ccc1F)N1CCN(C(=O)C2CC2)CC1 + Nc1ccc(C#CCN(C(=O)Cc2ncc(C(F)(F)F)cc2C(F)(F)F)c2ccc(F)cc2)nn1 | 68.7%
O=c1[nH]cc(F)c(=O)[nH]1 + Nc1ccc(C#CCN(C(=O)Cc2ncc(C(F)(F)F)cc2C(F)(F)F)c2ccc(F)cc2)nn1 | 76.7%
